{"source": "paper PMC7818428", "about": "“Potential Dental Biofilm Inhibitors: Dynamic Combinatorial Chemistry Affords Sugar‐Based Molecules that Target Bacterial Glucosyltransferase” (Chemmedchem, 2020)", "biological_target": "T1, GTF180-ΔN (GTF180) (Limosilactobacillus reuteri, UniProt Q5SBN3)", "T1 construct": "N-terminally truncated GTF180-ΔN (catalytic and C-terminal domains), 117 kDa", "T1 sequence (Q5SBN3 entry or part of it, stated change not applied)": "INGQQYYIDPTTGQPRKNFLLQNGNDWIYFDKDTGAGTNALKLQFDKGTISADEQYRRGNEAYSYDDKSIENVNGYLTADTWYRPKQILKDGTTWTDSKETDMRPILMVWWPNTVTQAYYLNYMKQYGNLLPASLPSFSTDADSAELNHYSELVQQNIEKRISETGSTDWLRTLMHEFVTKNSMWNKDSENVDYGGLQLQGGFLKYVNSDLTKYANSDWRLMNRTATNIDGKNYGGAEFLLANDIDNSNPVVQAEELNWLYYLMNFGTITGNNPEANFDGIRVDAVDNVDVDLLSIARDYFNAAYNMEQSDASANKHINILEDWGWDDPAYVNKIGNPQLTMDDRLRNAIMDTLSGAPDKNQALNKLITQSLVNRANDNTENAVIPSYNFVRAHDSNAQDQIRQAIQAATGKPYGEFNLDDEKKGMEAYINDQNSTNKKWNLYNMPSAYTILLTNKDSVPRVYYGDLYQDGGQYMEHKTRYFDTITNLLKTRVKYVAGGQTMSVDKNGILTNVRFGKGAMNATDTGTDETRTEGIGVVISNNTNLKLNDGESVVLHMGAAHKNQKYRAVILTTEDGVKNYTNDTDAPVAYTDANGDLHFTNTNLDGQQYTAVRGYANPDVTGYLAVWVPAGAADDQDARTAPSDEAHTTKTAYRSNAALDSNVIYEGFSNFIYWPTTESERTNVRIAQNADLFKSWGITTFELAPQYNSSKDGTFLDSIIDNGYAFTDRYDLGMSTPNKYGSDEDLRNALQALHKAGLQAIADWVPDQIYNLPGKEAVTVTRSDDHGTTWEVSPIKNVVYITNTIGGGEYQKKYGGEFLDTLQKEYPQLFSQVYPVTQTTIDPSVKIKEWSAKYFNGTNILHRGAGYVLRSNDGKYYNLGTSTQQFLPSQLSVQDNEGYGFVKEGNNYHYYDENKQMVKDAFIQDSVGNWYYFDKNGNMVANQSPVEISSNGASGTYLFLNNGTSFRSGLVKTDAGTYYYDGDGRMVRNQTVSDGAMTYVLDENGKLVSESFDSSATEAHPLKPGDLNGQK", "test": "UPLC-MS of dynamic combinatorial library (cleavage to A1H8)", "type": "biochemical", "conditions": "30 μM protein, mixture of library members with 10 mM aniline, pH 5.2, 10 % DMSO, room temperature"}
{"smiles": "O=C(CC1CCCC1)N/N=C/c1ccc(O[C@@H]2O[C@H](CO)[C@@H](O[C@H]3O[C@H](CO)[C@@H](O)[C@H](O)[C@H]3O)[C@H](O)[C@H]2O)cc1", "note": "[A2H8]", "values": [{"measurement": "UPLC-MS of dynamic combinatorial library (cleavage to A1H8)", "result": "maltose‐derived acylhydrazones A2H2 and A2H8 with a lipophilic"}]}
